Laboratory results: PMC3179844 (Chemmedchem, 2011)
pIC50: −log10 of the molar value.

Tests used:
[1] = biological target: T1, human cytochrome P450 1A2 (Homo sapiens, UniProt P05177); experiment: Inhibition of human cytochrome P450 1A2; format: in vitro ADME
T1 sequence (P05177 1-516): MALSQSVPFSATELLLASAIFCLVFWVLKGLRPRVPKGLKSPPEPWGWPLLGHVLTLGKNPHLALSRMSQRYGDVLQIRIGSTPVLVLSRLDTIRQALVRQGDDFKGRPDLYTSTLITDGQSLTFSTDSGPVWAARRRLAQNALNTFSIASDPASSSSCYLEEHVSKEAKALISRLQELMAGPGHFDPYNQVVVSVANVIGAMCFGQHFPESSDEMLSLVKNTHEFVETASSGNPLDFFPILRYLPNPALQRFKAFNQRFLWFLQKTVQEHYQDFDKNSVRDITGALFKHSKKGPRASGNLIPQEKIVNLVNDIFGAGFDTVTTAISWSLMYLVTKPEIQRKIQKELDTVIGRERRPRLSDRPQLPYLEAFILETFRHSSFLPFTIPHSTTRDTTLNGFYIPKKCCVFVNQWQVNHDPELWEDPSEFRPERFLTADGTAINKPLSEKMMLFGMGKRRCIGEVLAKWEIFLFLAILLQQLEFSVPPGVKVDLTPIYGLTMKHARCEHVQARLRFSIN

[2] = biological target: human cytochrome P450 2C9 (Homo sapiens, UniProt P11712); experiment: Inhibition of human cytochrome P450 2C9; format: in vitro ADME
Chain of human cytochrome P450 2C9 (P11712 whole entry): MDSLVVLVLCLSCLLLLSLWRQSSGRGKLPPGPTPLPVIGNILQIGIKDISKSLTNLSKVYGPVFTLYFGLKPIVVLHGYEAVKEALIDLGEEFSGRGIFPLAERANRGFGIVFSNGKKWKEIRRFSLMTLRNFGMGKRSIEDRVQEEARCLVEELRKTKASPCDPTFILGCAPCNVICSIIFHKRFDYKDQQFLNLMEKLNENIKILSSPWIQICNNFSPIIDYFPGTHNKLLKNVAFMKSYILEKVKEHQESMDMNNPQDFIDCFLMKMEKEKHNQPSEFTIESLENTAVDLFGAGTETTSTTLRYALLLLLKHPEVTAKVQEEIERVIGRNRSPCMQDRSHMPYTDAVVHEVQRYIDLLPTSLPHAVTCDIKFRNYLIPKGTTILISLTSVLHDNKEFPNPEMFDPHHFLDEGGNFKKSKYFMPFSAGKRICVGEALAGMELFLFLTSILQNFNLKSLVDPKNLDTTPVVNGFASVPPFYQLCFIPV

[3] = biological target: human cytochrome P450 2C19 (Homo sapiens, UniProt P33261); experiment: Inhibition of human cytochrome P450 2C19; format: in vitro ADME
Chain of human cytochrome P450 2C19 (P33261 whole entry): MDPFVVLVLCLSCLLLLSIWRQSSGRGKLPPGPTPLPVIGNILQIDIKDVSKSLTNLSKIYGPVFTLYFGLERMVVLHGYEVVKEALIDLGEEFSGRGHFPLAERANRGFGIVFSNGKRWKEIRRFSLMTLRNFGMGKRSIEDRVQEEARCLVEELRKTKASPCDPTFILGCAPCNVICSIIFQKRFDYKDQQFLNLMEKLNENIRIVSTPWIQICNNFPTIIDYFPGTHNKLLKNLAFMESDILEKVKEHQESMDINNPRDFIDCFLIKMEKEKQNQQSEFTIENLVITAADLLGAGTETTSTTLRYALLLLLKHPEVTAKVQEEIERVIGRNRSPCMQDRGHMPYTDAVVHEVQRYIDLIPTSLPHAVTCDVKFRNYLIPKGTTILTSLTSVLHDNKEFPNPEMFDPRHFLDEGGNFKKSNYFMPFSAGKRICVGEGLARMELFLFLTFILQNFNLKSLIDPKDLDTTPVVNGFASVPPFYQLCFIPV

mouse 11β-HSD1 = mouse 11β-HSD1 (Mus musculus, UniProt P50172); experiment: Cellular 11β-HSD1 inhibition, mouse enzyme; format: cell-based; details: mean of three measurements
Chain of mouse 11β-HSD1 (P50172 whole entry): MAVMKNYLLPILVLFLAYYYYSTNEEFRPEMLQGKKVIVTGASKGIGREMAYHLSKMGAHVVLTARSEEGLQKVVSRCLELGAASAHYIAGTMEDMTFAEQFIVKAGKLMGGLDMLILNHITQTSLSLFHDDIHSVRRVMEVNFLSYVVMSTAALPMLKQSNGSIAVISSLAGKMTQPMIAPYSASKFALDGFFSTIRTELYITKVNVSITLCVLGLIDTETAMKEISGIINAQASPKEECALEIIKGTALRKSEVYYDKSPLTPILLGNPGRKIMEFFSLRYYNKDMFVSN

[4] = biological target: human cytochrome P450 2D6 (Homo sapiens, UniProt P10635); experiment: Inhibition of human cytochrome P450 2D6; format: in vitro ADME
Chain of human cytochrome P450 2D6 (P10635 whole entry): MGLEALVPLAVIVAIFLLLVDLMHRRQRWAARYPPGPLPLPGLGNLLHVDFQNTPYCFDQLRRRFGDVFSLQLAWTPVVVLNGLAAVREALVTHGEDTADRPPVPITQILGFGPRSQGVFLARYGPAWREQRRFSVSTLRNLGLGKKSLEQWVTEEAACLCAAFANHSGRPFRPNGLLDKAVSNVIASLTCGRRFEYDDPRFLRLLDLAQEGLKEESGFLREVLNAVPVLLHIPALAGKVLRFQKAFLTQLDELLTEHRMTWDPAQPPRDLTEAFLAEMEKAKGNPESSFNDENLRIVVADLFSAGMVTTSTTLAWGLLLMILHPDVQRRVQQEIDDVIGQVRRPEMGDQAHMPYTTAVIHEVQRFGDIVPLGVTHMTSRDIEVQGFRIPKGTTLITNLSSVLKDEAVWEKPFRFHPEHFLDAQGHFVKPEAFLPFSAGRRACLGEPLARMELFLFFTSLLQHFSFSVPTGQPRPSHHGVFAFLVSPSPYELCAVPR

[5] = biological target: human cytochrome P450 3A4-BFC (Homo sapiens, UniProt P08684); experiment: Inhibition of human cytochrome P450 3A4-BFC; format: in vitro ADME
Chain of human cytochrome P450 3A4-BFC (P08684 whole entry): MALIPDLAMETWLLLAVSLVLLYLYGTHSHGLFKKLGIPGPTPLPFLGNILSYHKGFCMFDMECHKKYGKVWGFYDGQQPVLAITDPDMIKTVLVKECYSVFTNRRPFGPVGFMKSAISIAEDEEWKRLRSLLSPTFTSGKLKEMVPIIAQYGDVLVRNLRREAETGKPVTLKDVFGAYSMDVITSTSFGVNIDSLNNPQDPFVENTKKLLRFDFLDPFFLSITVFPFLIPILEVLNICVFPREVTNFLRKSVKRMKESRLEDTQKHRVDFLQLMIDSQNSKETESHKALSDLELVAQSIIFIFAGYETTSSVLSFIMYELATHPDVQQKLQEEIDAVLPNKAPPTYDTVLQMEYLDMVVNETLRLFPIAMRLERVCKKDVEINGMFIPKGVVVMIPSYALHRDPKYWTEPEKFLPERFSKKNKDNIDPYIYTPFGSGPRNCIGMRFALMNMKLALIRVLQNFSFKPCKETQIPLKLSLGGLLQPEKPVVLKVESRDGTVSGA

[6] = biological target: human cytochrome P450 3A4-BQ (Homo sapiens, UniProt P08684); experiment: Inhibition of human cytochrome P450 3A4-BQ
Chain of human cytochrome P450 3A4-BQ (P08684 whole entry): as above

[7] = Metabolism studies in human liver microsomes; format: in vitro ADME; details: for metabolites identified / half-life: human liver microsomes, 37 °C, NADPH; for microsomal CLint / half-life: human, liver microsomes; for half-life: 40 min, mean of two measurements
[8] = Water solubility in Na2HPO4 buffer solution; format: physicochemical; details: aqueous buffer

Row | pIC50 [1] | pIC50 [2] | pIC50 [3] | melting point [°C] | pIC50 (mouse 11β-HSD1) | pIC50 [4] | pIC50 [5] | pIC50 [6] | metabolites identified [7] | microsomal CLint [7] [µL/min/mg] | half-life [7] [h] | solubility [8] [µg/mL] | SMILES
1 | 4.64 | < 4.00 | 4.34 |  |  |  | 4.17 | 5.80 | no metabolites identified | 3.7 | 2.13 |  | O=C(COCc1cccnc1)C12CC3CC(CC(C3)C1)C2 [Compound 31, 1-(Adamantan-1-yl)-2-(pyridin-3-ylmethoxy)ethan-1-one]
2 | 4.44 | < 4.00 | 4.62 | 116 to 117 | 7.46 |  | < 4.00 | 4.62 |  |  |  |  | O=C(CS(=O)(=O)Cc1ccccn1)C12CC3CC(CC(C3)C1)C2 [Compound 43, 1-(Adamantan-1-yl)-2-[(pyridin-2-ylmethyl)sulfonyl]ethan-1-one]
3 |  |  |  |  |  |  |  |  |  |  |  | > 4000 | Cl.O=C(COCc1cccnc1)C12CC3CC(CC(C3)C1)C2 [Compound 62, 1-(Adamantan-1-yl)-2-(pyridin-3-ylmethoxy)ethan-1-one hydrochloride]

The remaining lines, values behind:

Row | SMILES | pIC50 [1] | pIC50 [2] | pIC50 [3] | melting point [°C] | pIC50 (mouse 11β-HSD1) | pIC50 [4] | pIC50 [5] | pIC50 [6] | metabolites identified [7] | microsomal CLint [7] [µL/min/mg] | half-life [7] [h] | solubility [8] [µg/mL]
4 | O=C(C[S+]([O-])c1ccncc1)C12CC3CC(CC(C3)C1)C2 (stereo not shown) [Compound 18, 1-(Adamantan-1-yl)-2-(pyridine-4-sulfinyl)ethan-1-one] | < 4.00 | < 4.00 | < 4.00 | 136 to 138 | 7.21 | < 4.00 | 4.92 | < 4.00 |  |  |  | 
5 | O=C(COCc1ccccn1)C12CC3CC(CC(C3)C1)C2 [Compound 28, 1-(Adamantan-1-yl)-2-(pyridin-2-ylmethoxy)ethan-1-one] | < 4.00 | < 4.00 | < 4.00 |  | 7.36 | < 4.00 | 4.70 | 4.11 | no metabolites identified | 8.9 | 1.13 | 
